Laboratory results reported in publication PMC6423038, “Deferiprone: Pan-selective Histone Lysine Demethylase Inhibition Activity and Structure Activity Relationship Study” (Scientific Reports, 2019).

Experiments:
MDA-MB-231 = assay: Cell viability assay (MTS), antiproliferative activity; assay type: cell-based; details: Homo sapiens, 72 h
Method: (§1) To preliminarily profile the bioactivity of these compounds, we adopted a streamlined approach which involved screening against KDM6A at two concentrations and evaluating antiproliferative activity against three representative cell lines – MCF-7 (ER(+) BCa), MDA-MB-231 (TNBC BCa) and Vero (a non-transformed cell line as control).
(§2) The In vitro proliferation assay was performed as reported previously[15],[16]. Detailed description of the protocol used is included in the Supplementary Information.
(§3) Cell Viability Assay. All cell lines were purchased form ATCC (Manassas, VA), and they were routinely cultured in different media recommended by the supplier. MCF-7 cells were cultured in non-phenol red DMEM (Corning, Manassas, VA) fortified with 10% charcoal treated fetal bovine serum (FBS; Atlanta Biologicals, GA) and 0.2 mM glutamine (Corning, Manassas, VA), whereas MDA-MB-231, DU-145, and Vero were cultured in DMEM with 10% FBS. […] After 24 h incubation in 37 °C under 5% CO2, cells were treated with serially diluted ligands with final DMSO concentration of 1% and incubated for additional 72 h. MTS (CellTiter 96 Aqueous One Solution Cell Proliferation Assays, Promega, Madison, WI) was added to each well 2.5 h prior to recording the absorbance at 490 nm.

MCF-7 = assay: as above; assay type: cell-based; details: Homo sapiens, MCF7, 72 h
Method: as §1, §2, §3

VERO = assay: as above; assay type: cell-based; details: Chlorocebus sabaeus, 72 h
Method: as §1, §2, §3

KDM6A (UTX) = molecular target: T1, KDM6A (UTX) (Homo sapiens, UniProt O15550); assay: KDM cell-free assay (AlphaScreen, BPS Bioscience); assay type: biochemical; details: for IC50: Fig. 9A, read-out: IC50 (KDM6A inhibition dose response curve)
T1 construct: purchased BPS Bioscience
T1 sequence (O15550 whole entry): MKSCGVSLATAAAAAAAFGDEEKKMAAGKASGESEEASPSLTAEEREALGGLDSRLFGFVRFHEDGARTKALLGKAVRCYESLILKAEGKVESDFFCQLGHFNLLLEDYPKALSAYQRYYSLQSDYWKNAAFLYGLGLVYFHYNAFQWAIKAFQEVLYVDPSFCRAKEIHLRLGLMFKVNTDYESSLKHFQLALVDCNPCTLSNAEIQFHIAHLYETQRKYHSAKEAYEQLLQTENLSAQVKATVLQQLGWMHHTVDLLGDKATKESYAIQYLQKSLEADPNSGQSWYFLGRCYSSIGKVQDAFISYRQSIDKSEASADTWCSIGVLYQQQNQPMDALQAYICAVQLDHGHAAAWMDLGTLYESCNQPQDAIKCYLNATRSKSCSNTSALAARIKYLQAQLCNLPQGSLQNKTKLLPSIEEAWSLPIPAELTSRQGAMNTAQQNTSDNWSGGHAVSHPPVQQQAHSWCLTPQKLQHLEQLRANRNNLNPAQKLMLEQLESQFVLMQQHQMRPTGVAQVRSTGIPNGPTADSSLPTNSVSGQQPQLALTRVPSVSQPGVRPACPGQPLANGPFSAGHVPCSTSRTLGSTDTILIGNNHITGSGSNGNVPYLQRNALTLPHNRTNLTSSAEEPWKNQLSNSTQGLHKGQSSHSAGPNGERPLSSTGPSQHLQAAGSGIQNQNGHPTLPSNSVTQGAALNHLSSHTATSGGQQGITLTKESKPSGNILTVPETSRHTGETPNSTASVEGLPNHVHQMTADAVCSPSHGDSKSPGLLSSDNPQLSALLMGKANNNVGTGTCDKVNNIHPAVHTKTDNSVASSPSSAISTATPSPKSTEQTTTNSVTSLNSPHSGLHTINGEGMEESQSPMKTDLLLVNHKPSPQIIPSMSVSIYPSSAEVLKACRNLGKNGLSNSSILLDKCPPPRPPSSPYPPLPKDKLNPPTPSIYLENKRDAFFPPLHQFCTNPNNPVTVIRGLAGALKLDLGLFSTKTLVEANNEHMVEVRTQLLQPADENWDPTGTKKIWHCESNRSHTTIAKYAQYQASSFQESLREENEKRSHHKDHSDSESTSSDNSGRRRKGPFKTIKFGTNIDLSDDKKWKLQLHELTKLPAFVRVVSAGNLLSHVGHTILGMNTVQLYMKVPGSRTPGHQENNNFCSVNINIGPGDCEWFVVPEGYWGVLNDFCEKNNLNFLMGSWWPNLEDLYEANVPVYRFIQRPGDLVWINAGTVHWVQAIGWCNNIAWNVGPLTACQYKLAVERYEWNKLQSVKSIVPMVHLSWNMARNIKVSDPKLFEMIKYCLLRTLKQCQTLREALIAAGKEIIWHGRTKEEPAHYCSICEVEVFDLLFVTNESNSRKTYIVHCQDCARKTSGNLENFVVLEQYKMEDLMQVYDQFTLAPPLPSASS

T47D cells = assay: Viability of T47D cells at three concentrations; assay type: cell-based, human; details: Fig. S9
Method: To determine the antitumor potential of the DFP-based KDM inhibitors, we investigated the efficacy of a representative example, 2j, in two murine xenograft models of BCa. The xenografts were established using two human BCa cell lines – T47D (ER(+)) and MDA-MB-231 (ER(−)). […] Because our in vitro study was conducted using MCF-7 as a model of ER(+) cell, we first tested the effect of 2j on the viability of T47D cells at three concentrations. […] The effect of 2j on T47D viability mirrored that of its effect on MCF-7, confirming preferential cytotoxicity of the DFP-based agents […]. Once we established that T47D cells are sensitive to 2j, xenografts of T47D and MDA-MB-231 were established in female athymic nude mice (8-week old) by injection of cells (1 × 10^7) into the mammary fat pad as described previously[37],[38]. After the tumor volume reached ~250 mm^3, mice were treated with 2j (25 mg/kg body weight) for 8 weeks. […] Relative to control, 2j caused approx. 81% (4426 vs 884 mm^3) and 70% (5116 vs 1536 mm^3) reduction in the growth of T47D and MDA-MBMB-231 tumors, respectively.

[1] = test system: HP1-mediated heterochromatin gene repression in CiA:Oct4 embryonic stem cells; assay: HP1-recruitment assay dose curve (CiA:Oct4, with CIP-rapamycin), flow cytometry; assay type: cell-based, mouse; details: 48 h with CIP-rapamycin recruitment of HP1; for concentration reaching maximum inhibition of heterochromatin formation / gene repression: doses 250 nM–10 µM
Description: To elucidate the effect of DFP-based KDM inhibitors on chromatin dynamics, we profiled them in an intracellular assay which measures heterochromatin formation speed. The chromatin in vivo assay (CiA) leverages chemical induced proximity (CIP) to recruit heterochromatin protein 1 (HP1) to a modified Oct4 locus. This reporter system is composed of tandem arrays of Gal4 and zinc finger DNA binding domains in the promoter of one allele of Oct4, where the gene was replaced by a nuclear eGFP reporter. Protein fusions of Gal4-FKBP and FRB-HP1 allow for direct chemical recruitment of HP1 to the CiA:Oct4 reporter locus upon addition of the chemical inducer of proximity (CIP)-rapamycin. After CIP-rapamycin addition, HP1 is recruited to the reporter locus and brings histone methyltransferase enzymes to the chromatin reporter resulting in the repressive H3K9me3 mark being deposited (Fig. 10A). H3K9me3 deposition is the signature mark of heterochromatin and is coupled with gene silencing and loss of GFP expression (Fig. 10B)[33]. Others have shown that H3K4me3 marked nucleosomes impede H3K9 methyltransferase activity. Thus, we postulate that the active H3K4me3 mark must be removed by KDM enzymes as part of the transformation from euchromatin to heterochromatin. Inhibition of KDMs, specifically those targeting H3K4me3, would result in a decrease in H3K9me3 accumulation, which would be measured in our assay as an increase in GFP positive cells.
To determine the effect of DFP-based KDM inhibitors on HP1-mediated gene repression, we treated CiA:Oct4 embryonic stem (ES) cells with doses of representative compounds ranging from 10 µM–250 nM for 48 h with CIP-rapamycin recruitment of HP1 (Fig. 10C). […] The percentage of GFP(+) cells was determined by flow cytometry as indicated in representative histograms (Supplemental Fig. S8).
(§4) Day 0, CiA:Oct4 N118/163 cells were grown in ES media and seeded at a density of 10,000 cells per well in 100 μL media (100,000 cells mL^−1) on gelatin coated 96 well plates. Day 1, culture media was aspirated and replaced with 100 µL ES media containing +/− 6 nM rapamycin. 10 µM, 5 µM, 2.5 µM, 1 µM, 500 nM, and 250 nM concentrations of compound or DMSO were added using a TTP Labtech Mosquito HTS liquid handler. Days 2, fresh ES media +/− rapamycin and compound were added as in Day 1. Day 3, cells were washed with PBS and trypsinized using 0.25% trypsin-EDTA. Trypsin was quenched with serum. Cells were resuspended by pipetting in preparation for flow cytometry analysis.
(§5) Flow cytometry data was acquired using the Intellicyt iQue Screener and analyzed with FlowJo software.
The CiA:Oct4 recruitment system in mouse embryonic stem cells contains Gal4 and Zinc finger DNA binding arrays and a downstream nuclear eGFP gene in place of a single Oct4 allele as previously described.^30 The CiA:Oct4 N118/N163 cell line containing viral integrations of N118 and N163 plasmids (N118- nLV EF-1α-Gal-FKBPx1-HA-PGK-Blast, N163- nLV EF-1α-HP1α (CS)-Frbx2(Frb+FrbWobb)-V5-PGK-Puro) was used for inhibition of HP1-mediated heterochromatin studies. All plasmids are freely available on addgene.
(§6) HP1-Recruitment Assay Dose Curve. Day 0, CiA:Oct4 N118/163 cells were grown in ES media and seeded at a density of 10,000 cells per well in 100 µL media (100,000 cells mL^-1) on gelatin coated 96 well plates. Day 1, culture media was aspirated and replaced with 100 µL ES media containing +/- 6 nM rapamycin. 10 µM, 5 µM, 2.5 µM, 1 µM, 500 nM, and 250 nM concentrations of compound or DMSO were added using a TTP Labtech Mosquito HTS liquid handler. Days 2, fresh ES media +/- rapamycin and compound were added as in Day 1. Day 3, cells were washed with PBS and trypsinized using 0.25% trypsin-EDTA. Trypsin was quenched with serum. Cells were resuspended by pipetting in preparation for flow cytometry analysis.
Flow Cytometry and Analysis.

MDA-MB-231 tumors = assay: Mouse xenograft assay, MDA-MB-231 (ER(−)); assay type: in vivo; details: MDA-MB-231 xenograft
[2] = test system: Oct4 GFP expression in CiA:Oct4 embryonic stem cells; assay: CiA:Oct4 reporter dose response without HP1 recruitment (no CIP-rapamycin), flow cytometry; assay type: cell-based, mouse; details: 48 h without HP1 recruitment; for decrease in the percentage of GFP(+) cells: at 2.5 µM
Description: Embryonic stem cells are sensitive to environmental stimuli which may trigger cell differentiation. During mammalian stem cell differentiation or exposure to toxic compounds, Oct4 is known to be repressed as cells lose reinforcement of the pluripotency transcriptional activation network[35],[36]. Therefore, the CiA:Oct4 reporter without CIP-recruitment of HP1 functions is a valid system to determine how much cell differentiation or toxicity is occurring by measuring the GFP expression levels. To elucidate the effect of DFP-based KDM inhibitors on Oct4 GFP expression in the absence of HP1 recruitment, we performed dose response studies without addition of CIP-rapamycin (Fig. 11A).
as §4, §5, §6
Flow Cytometry and Analysis. Flow cytometry data was acquired using the Intellicyt iQue Screener and analyzed with FlowJo software. Cell populations were gated based on forward and side scatter height. Single cell populations were gated using forward scatter area by forward scatter height. Autofluorescent cells were excluded and the remaining cells were gated into GFP (-) and GFP (+) populations based on DMSO control samples.

[3] = Table 5, values calculated by linear regression

IC50 (MDA-MB-231; Table 5)	IC50 (MCF-7; [3])	inhibition at 1 µM (KDM6A (UTX); Table 2)	inhibition at 10 µM (KDM6A (UTX); Table 2)	IC50 (KDM6A (UTX))	IC50 (MCF-7; Table 5)	IC50 (MDA-MB-231; Table 6)	IC50 (MCF-7; Table 6, values calculated by linear regression)	inhibition at 1 µM (KDM6A (UTX); Table 3)	inhibition at 10 µM (KDM6A (UTX); Table 3)	Compound	IC50 (VERO; Table 5)	growth of T47D cells (T47D cells)	increase in the number of GFP positive cells [1]	reduction in the growth of tumors relative to control (MDA-MB-231 tumors; athymic nude mice, 25 mg/kg body weight for 8 weeks)	tumor volume (MDA-MB-231 tumors; 25 mg/kg for 8 weeks, control 5116 mm^3)	decrease in percentage GFP(+) cells ([2]; only at the 10 µM dose)	concentration reaching maximum inhibition of heterochromatin formation / gene repression [1]	decrease in the percentage of GFP(+) cells [2]	IC50 (VERO; Table 6)
1.2 µM		16%	57%		> 50 µM					COc1ccc2cc(-c3cn(CCCCCCn4ccc(=O)c(O)c4C)nn3)ccc2c1 [2w]	3.9 µM						1 µM	~ 30%	
				1700 nM		3.5 µM	31.1 µM	9%	100%	Cc1c(O)c(=O)ccn1C1CCC(CC2CCC(n3ccc(=O)c(O)c3C)CC2)CC1 (stereo not drawn) [3g]							2.5 µM	~ 30%	> 50 µM

The remaining lines, values behind:

Compound	IC50 (MDA-MB-231; Table 5)	IC50 (MCF-7; [3])	inhibition at 1 µM (KDM6A (UTX); Table 2)	inhibition at 10 µM (KDM6A (UTX); Table 2)	IC50 (KDM6A (UTX))	IC50 (MCF-7; Table 5)	IC50 (MDA-MB-231; Table 6)	IC50 (MCF-7; Table 6, values calculated by linear regression)	inhibition at 1 µM (KDM6A (UTX); Table 3)	inhibition at 10 µM (KDM6A (UTX); Table 3)	IC50 (VERO; Table 5)	growth of T47D cells (T47D cells)	increase in the number of GFP positive cells [1]	reduction in the growth of tumors relative to control (MDA-MB-231 tumors; athymic nude mice, 25 mg/kg body weight for 8 weeks)	tumor volume (MDA-MB-231 tumors; 25 mg/kg for 8 weeks, control 5116 mm^3)	decrease in percentage GFP(+) cells ([2]; only at the 10 µM dose)	concentration reaching maximum inhibition of heterochromatin formation / gene repression [1]	decrease in the percentage of GFP(+) cells [2]	IC50 (VERO; Table 6)
COc1cccc(-c2cn(CCCCCn3ccc(=O)c(O)c3C)nn2)c1 [2j]	10.6 µM	34.1 µM	8%	100%	3200 nM						> 50 µM	dose-dependent reduction	20%	~70%	1536 mm^3				
Cc1c(O)c(=O)ccn1CCCCCn1cc(-c2ccc(-c3ccncc3)cc2)nn1 [2t]	3.6 µM	37.6 µM	8%	99%							29.2 µM					~ 20%	10 µM		
Cc1c(O)c(=O)ccn1CCCCCCn1cc(-c2ccc(-c3ccccc3)cc2)nn1 [2v]	2.5 µM		12%	49%		> 50 µM					4.9 µM						1 µM	~ 30%	
